Drawing on PubChem BioAssay AID220 (DTP/NCI, 2004), this text covers T/C for 11 compounds.

Where “and” joins values, the source holds several entries; their conditions need not be identical. Equal values may be shown once. Results filed as inconclusive are left out.

The assay has as its system CD8F1 mice, subcutaneous mammary adenocarcinoma, T/C%. In words: NCI In Vivo Anticancer Drug Screen. Data for tumor model Mammary Adenocarcinoma CD8F1 (subcutaneous) in CD8F1. To be noted: higher = larger tumour. Summed up:
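Compound-treated versus vehicle-treated mice with transplantable tumors; survival or tumor size compared as T/C.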

The mark [1] stands for this setting: endpoint: median tumor weight change, dose: 125.0 mg/kg/injection, schedule: Q01DX001 (ip), vehicle: saline.
Setting [2] is: endpoint: median tumor weight change, dose: 250.0 mg/kg/injection, schedule: Q01DX001 (ip), vehicle: saline.
The mark [3] stands for this setting: endpoint: median tumor weight (est.), dose: 12.5 mg/kg/injection, schedule: Q07DX005 (ip), vehicle: saline with Tween-80.
Setting [4] is: endpoint: median tumor weight (est.), dose: 25.0 mg/kg/injection, schedule: Q07DX005 (ip), vehicle: saline with Tween-80.
Setting [5] is: endpoint: median tumor weight (est.), dose: 100.0 mg/kg/injection, schedule: Q07DX005 (ip), vehicle: saline with Tween-80.

For `C#C[C@]1(O)CC[C@H]2[C@@H]3CCc4cc(O)ccc4[C@H]3CC[C@@]21C`, the T/C is 92 % of control (endpoint: median tumor weight change, dose: 12.5 mg/kg/injection, schedule: Q01DX001 (ip), vehicle: Klucel (hydroxypropylcellulose) (HPC)); 78 % of control (endpoint: median tumor weight change, dose: 25.0 mg/kg/injection, schedule: Q01DX001 (ip), vehicle: Klucel (hydroxypropylcellulose) (HPC)); 75 % of control (endpoint: median tumor weight change, dose: 50.0 mg/kg/injection, schedule: Q01DX001 (ip), vehicle: Klucel (hydroxypropylcellulose) (HPC)); 60 % of control (endpoint: median tumor weight change, dose: 56.0 mg/kg/injection, schedule: Q01DX001 (ip), vehicle: Klucel (hydroxypropylcellulose) (HPC)); 63 % of control (endpoint: median tumor weight change, dose: 100.0 mg/kg/injection, schedule: Q01DX001 (ip), vehicle: Klucel (hydroxypropylcellulose) (HPC)); 75 % of control (endpoint: median tumor weight change, dose: 112.0 mg/kg/injection, schedule: Q01DX001 (ip), vehicle: Klucel (hydroxypropylcellulose) (HPC)). The T/C is 46 % of control (endpoint: median tumor weight change, dose: 200.0 mg/kg/injection, schedule: Q01DX001 (ip), vehicle: Klucel (hydroxypropylcellulose) (HPC)); 66 % of control (endpoint: median tumor weight change, dose: 225.0 mg/kg/injection, schedule: Q01DX001 (ip), vehicle: Klucel (hydroxypropylcellulose) (HPC)); 52 % of control (endpoint: median tumor weight change, dose: 400.0 mg/kg/injection, schedule: Q01DX001 (ip), vehicle: Klucel (hydroxypropylcellulose) (HPC)); 101 % of control (endpoint: median tumor weight change, dose: 450.0 mg/kg/injection, schedule: Q01DX001 (ip), vehicle: Klucel (hydroxypropylcellulose) (HPC)); 101 % of control (endpoint: median tumor weight change, dose: 450.0 mg/kg/injection, schedule: Q01DX001 (ip), vehicle: saline with Tween-80).

For the compound `CCOC(=O)c1[nH]c2cccc3c2c1CC(Br)C3=O` (stereo not given), the T/C is 86 % of control (endpoint: median tumor weight change, dose: 125.0 mg/kg/injection, schedule: Q01DX001 (ip), vehicle: saline with Tween-80) and 52 % of control (endpoint: median tumor weight change, dose: 250.0 mg/kg/injection, schedule: Q01DX001 (ip), vehicle: saline with Tween-80).

Take `N=C1CCCS1`: the T/C under setting [1] was 93 % of control and the T/C under setting [2] was 89 % of control.

On to `CCCCCCCCCCCCCCCCCC(=O)Nc1ccn(C2OC(CO)C(O)C2O)c(=O)n1` (stereo not given), for which the T/C was 98 % of control under setting [3]; 93 % of control (endpoint: median tumor weight (est.), dose: 12.5 mg/kg/injection, schedule: Q07DX005 (ip), vehicle: suspension in saline); 52 % of control under setting [4]; 27 % of control (endpoint: median tumor weight (est.), dose: 25.0 mg/kg/injection, schedule: Q07DX005 (ip), vehicle: suspension in saline); 49 % of control (endpoint: median tumor weight (est.), dose: 50.0 mg/kg/injection, schedule: Q07DX005 (ip), vehicle: saline with Tween-80); 45 % of control (endpoint: median tumor weight (est.), dose: 50.0 mg/kg/injection, schedule: Q07DX005 (ip), vehicle: suspension in saline). The T/C is, setting by setting: (endpoint: median tumor weight (est.), dose: 77.0 mg/kg/injection, schedule: Q07DX005 (ip), vehicle: saline with Tween-80) 25 % of control; under setting [5], 13 % of control; (endpoint: median tumor weight (est.), dose: 100.0 mg/kg/injection, schedule: Q07DX005 (ip), vehicle: suspension in saline) 53 % of control; (endpoint: median tumor weight (est.), dose: 118.0 mg/kg/injection, schedule: Q07DX005 (ip), vehicle: saline with Tween-80) 7 % of control.

Take `O=c1[nH]cnc2[nH]ncc12`: the T/C was 104 % of control (endpoint: median tumor weight change, dose: 125.0 mg/kg/injection, schedule: Q01DX001 (ip), vehicle: suspension in saline) and 71 % of control (endpoint: median tumor weight change, dose: 250.0 mg/kg/injection, schedule: Q01DX001 (ip), vehicle: suspension in saline).

On to `NC1=NC(=O)N2CC12` (stereo not given), for which the T/C was 115 % of control under setting [1] and 122 % of control under setting [2].

For `ClCC[N+]12CC[N+](CCCl)(CC1)C2` (tested in a mixture with another compound), the T/C by setting is: (endpoint: median tumor weight (est.), dose: 25.0 mg/kg/injection, schedule: Q07DX005 (ip), vehicle: saline) 75 % of control; (endpoint: median tumor weight (est.), dose: 50.0 mg/kg/injection, schedule: Q07DX005 (ip), vehicle: saline) 67 % of control; (endpoint: median tumor weight (est.), dose: 100.0 mg/kg/injection, schedule: Q07DX005 (ip), vehicle: saline) 93 % of control; (endpoint: median tumor weight (est.), dose: 200.0 mg/kg/injection, schedule: Q07DX005 (ip), vehicle: saline) 43 % of control; (endpoint: median tumor weight (est.), dose: 400.0 mg/kg/injection, schedule: Q07DX005 (ip), vehicle: saline) 43 % of control; (endpoint: median tumor weight (est.), dose: 600.0 mg/kg/injection, schedule: Q07DX005 (ip), vehicle: saline) 12 % of control.

With `CN(c1ccccc1)P(=O)(N1CC1)N1CC1`, the T/C (endpoint: mean tumor weight, dose: 12.5 mg/kg/injection, schedule: Q07DX007 (ip), vehicle: saline) was 3 % of control.

In the case of `COC1C=CC23c4cc5c(cc4C(O)OC2CN(C)C3C1)OCO5` (stereo not given), the T/C reads like this: (endpoint: median tumor weight (est.), dose: 18.75 mg/kg/injection, schedule: Q07DX005 (ip), vehicle: saline) 154 % of control; (endpoint: median tumor weight (est.), dose: 37.5 mg/kg/injection, schedule: Q07DX005 (ip), vehicle: saline) 205 % of control; (endpoint: median tumor weight (est.), dose: 75.0 mg/kg/injection, schedule: Q07DX005 (ip), vehicle: saline) 88 % of control; (endpoint: median tumor weight (est.), dose: 150.0 mg/kg/injection, schedule: Q07DX005 (ip), vehicle: saline) 120 % of control.

`COc1cc(NS(C)(=O)=O)ccc1Nc1c2ccccc2nc2ccccc12`: the T/C (endpoint: mean tumor weight (est.), dose: 4.0 mg/kg/injection, schedule: Q07DX004 (ip), vehicle: saline) was 158 % of control; the T/C (endpoint: mean tumor weight (est.), dose: 8.0 mg/kg/injection, schedule: Q07DX004 (ip), vehicle: saline) is 120 % of control; the T/C (endpoint: mean tumor weight (est.), dose: 16.0 mg/kg/injection, schedule: Q07DX004 (ip), vehicle: saline) is 109 % of control; the T/C (endpoint: mean tumor weight (est.), dose: 32.0 mg/kg/injection, schedule: Q07DX004 (ip), vehicle: saline) is 79 % of control; the T/C (endpoint: mean tumor weight, dose: 2.0 mg/kg/injection, schedule: Q05DX005 (ip), vehicle: saline) was 66 % of control; the T/C (endpoint: mean tumor weight, dose: 4.0 mg/kg/injection, schedule: Q05DX005 (ip), vehicle: saline) is 82 % of control. Moreover, the T/C is 51 % of control (endpoint: mean tumor weight, dose: 4.0 mg/kg/injection, schedule: Q07DX004 (ip), vehicle: saline); 62 % of control (endpoint: mean tumor weight, dose: 8.0 mg/kg/injection, schedule: Q05DX005 (ip), vehicle: saline); 28 % of control (endpoint: mean tumor weight, dose: 8.0 mg/kg/injection, schedule: Q07DX004 (ip), vehicle: saline); 39 % of control (endpoint: mean tumor weight, dose: 16.0 mg/kg/injection, schedule: Q05DX005 (ip), vehicle: saline); 23 % of control (endpoint: mean tumor weight, dose: 16.0 mg/kg/injection, schedule: Q07DX004 (ip), vehicle: saline); 18 % of control (endpoint: mean tumor weight, dose: 32.0 mg/kg/injection, schedule: Q07DX004 (ip), vehicle: saline). The T/C runs as follows: (endpoint: median tumor weight (est.), dose: 1.0 mg/kg/injection, schedule: Q01DX005 (ip), vehicle: Klucel (hydroxypropylcellulose) (HPC)) 73 % of control; (endpoint: median tumor weight (est.), dose: 2.0 mg/kg/injection, schedule: Q01DX005 (ip), vehicle: Klucel (hydroxypropylcellulose) (HPC)) 94 % of control; (endpoint: median tumor weight (est.), dose: 2.0 mg/kg/injection, schedule: Q07DX005 (ip), vehicle: Klucel (hydroxypropylcellulose) (HPC)) 195 % of control; (endpoint: median tumor weight (est.), dose: 4.0 mg/kg/injection, schedule: Q01DX005 (ip), vehicle: Klucel (hydroxypropylcellulose) (HPC)) 80 % of control; (endpoint: median tumor weight (est.), dose: 4.0 mg/kg/injection, schedule: Q04DX005 (ip), vehicle: Klucel (hydroxypropylcellulose) (HPC)) 119 % of control; (endpoint: median tumor weight (est.), dose: 4.0 mg/kg/injection, schedule: Q07DX005 (ip), vehicle: Klucel (hydroxypropylcellulose) (HPC)) 42 % of control and 65 % of control. The T/C runs as follows: (endpoint: median tumor weight (est.), dose: 8.0 mg/kg/injection, schedule: Q01DX005 (ip), vehicle: Klucel (hydroxypropylcellulose) (HPC)) 59 % of control; (endpoint: median tumor weight (est.), dose: 8.0 mg/kg/injection, schedule: Q04DX005 (ip), vehicle: Klucel (hydroxypropylcellulose) (HPC)) 35 % of control; (endpoint: median tumor weight (est.), dose: 16.0 mg/kg/injection, schedule: Q01DX001 (ip), vehicle: Klucel (hydroxypropylcellulose) (HPC)) 93 % of control; (endpoint: median tumor weight (est.), dose: 16.0 mg/kg/injection, schedule: Q01DX005 (ip), vehicle: Klucel (hydroxypropylcellulose) (HPC)) 38 % of control; (endpoint: median tumor weight (est.), dose: 16.0 mg/kg/injection, schedule: Q04DX005 (ip), vehicle: Klucel (hydroxypropylcellulose) (HPC)) 17 % of control; (endpoint: median tumor weight (est.), dose: 32.0 mg/kg/injection, schedule: Q01DX001 (ip), vehicle: Klucel (hydroxypropylcellulose) (HPC)) 35 % of control. The T/C is 3 % of control and 10 % of control (endpoint: median tumor weight (est.), dose: 32.0 mg/kg/injection, schedule: Q07DX005 (ip), vehicle: Klucel (hydroxypropylcellulose) (HPC)); 39 % of control (endpoint: median tumor weight (est.), dose: 64.0 mg/kg/injection, schedule: Q01DX001 (ip), vehicle: Klucel (hydroxypropylcellulose) (HPC)).

For the compound `O=C1NC(=O)/C(=C/C=C/c2ccccc2)S1`, the T/C under setting [3] was 66 % of control; the T/C under setting [4] was 100 % of control; the T/C under setting [5] was 81 % of control; the T/C (endpoint: median tumor weight (est.), dose: 200.0 mg/kg/injection, schedule: Q07DX005 (ip), vehicle: saline with Tween-80) was 101 % of control.
